{"source": "paper PMC12091851", "about": "“Replacing a Cereblon Ligand by a DDB1 and CUL4 Associated Factor 11 (DCAF11) Recruiter Converts a Selective Histone Deacetylase 6 PROTAC into a Pan‐Degrader” (Chemmedchem, 2025)", "key": {"MDA-MB-231 cells": {"system": "MDA-MB-231 cells", "test": "Clonogenic growth assay", "format": "cell-based, human", "details": "10 μM for 48 h, nine days of growth", "method": "Figure 9 Clonogenic growth assay of DCAF11‐recruiting PROTACs. MDA‐MB‐231 cells were treated with 10 μM of the respective compound or vehicle (DMSO) for 48 hours. (A) Representative images of crystal violet stained colonies after nine days of growth. (B) Quantification of counted colonies, presented as mean ± standard deviation of three biological replicates, each performed in triplicates. Significance of quantification compared to vehicle: ns=p≥0.05; **=p≤0.01 and ***=p≤0.001. […]\nSubsequently, cells were harvested and\nplated in 6-well plates at a density of 750 cells per well in triplicates. The cell culture medium was\nchanged after five days. Nine days after plating, the colonies were carefully washed with 500 µL DPBS\nand stained with 500 µL crystal violet solution (0.5% in methanol). After 30 minutes of incubation at\nroom temperature, the wells were gently rinsed with deionized water. After counting the formed\ncolonies, GraphPad Prism (GraphPad Software) was used for bar graph creation. Significance testing\nwas performed with a one-way analysis of variance (ANOVA). Dunnett’s post-hoc test was employed\nto obtain significance levels of each mean compared to a reference mean value."}, "HDAC4": {"target": "HDAC4 (Homo sapiens, UniProt P56524)", "sequence (P56524 whole entry, canonical isoform)": "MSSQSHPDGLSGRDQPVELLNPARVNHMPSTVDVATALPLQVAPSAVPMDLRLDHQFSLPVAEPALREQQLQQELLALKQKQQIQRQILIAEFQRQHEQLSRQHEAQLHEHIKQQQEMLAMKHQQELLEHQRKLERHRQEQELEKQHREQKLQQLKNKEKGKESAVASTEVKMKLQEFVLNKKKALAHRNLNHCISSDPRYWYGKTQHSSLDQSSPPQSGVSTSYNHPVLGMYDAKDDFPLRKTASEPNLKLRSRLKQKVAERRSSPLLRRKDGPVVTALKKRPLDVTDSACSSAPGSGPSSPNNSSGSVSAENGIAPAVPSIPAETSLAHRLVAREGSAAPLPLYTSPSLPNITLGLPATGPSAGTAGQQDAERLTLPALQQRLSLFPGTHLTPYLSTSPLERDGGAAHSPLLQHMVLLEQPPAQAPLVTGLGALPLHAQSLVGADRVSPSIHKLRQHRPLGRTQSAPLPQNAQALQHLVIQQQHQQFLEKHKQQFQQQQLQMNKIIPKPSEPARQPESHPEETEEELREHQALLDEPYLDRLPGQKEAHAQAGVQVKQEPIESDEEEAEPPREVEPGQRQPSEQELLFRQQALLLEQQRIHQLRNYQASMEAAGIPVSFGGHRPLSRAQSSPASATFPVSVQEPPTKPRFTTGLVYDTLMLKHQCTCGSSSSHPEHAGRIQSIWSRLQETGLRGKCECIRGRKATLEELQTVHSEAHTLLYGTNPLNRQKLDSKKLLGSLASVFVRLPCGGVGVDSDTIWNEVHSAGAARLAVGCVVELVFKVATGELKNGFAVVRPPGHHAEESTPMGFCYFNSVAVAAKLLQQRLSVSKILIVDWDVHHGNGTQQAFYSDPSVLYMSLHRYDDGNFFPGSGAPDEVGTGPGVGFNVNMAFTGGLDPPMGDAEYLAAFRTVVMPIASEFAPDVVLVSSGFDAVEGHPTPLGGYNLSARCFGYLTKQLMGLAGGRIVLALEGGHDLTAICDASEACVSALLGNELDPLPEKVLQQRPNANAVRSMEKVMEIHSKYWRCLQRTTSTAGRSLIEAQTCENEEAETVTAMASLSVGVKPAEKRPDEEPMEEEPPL", "test": "Immunoblot HDAC4 degradation in MM.1S cell lysates", "format": "cell-based", "parameters": "endogenous in cells; host or cells: MM.1S", "details": "MM1.S, MM.1S cells, 24 h, read-out: maximal degradation (Dmax) HDAC4", "method": "Figure 6 Examination of HDAC isoform degradation. MM.1S cells were treated with the indicated compounds (10 μM) or vehicle (DMSO) for 24 h. HDAC1, 2, 4, and 6 levels were analyzed by immunoblotting. (A) Representative images from a total of n=3 biological replicates. […]\nThe cell lysis was performed as descripted in 3.2. Simple Western Immunoassay. Samples were denatured by Laemmli 2× Concentrate (Catalog# S3401-10VL, Sigma-Aldrich) for 5 min at 95 °C, and Precision Plus Protein Unstained Standard was used as molecular weight marker (Catalog# 1610363, Bio-Rad, Hercules, CA, USA). SDS-PAGE was performed with 10 or 12% Mini-PROTEAN TGX Stain-Free Gel (Catalog# 458035, Bio -Rad) at 200 V for 50 min (Catalog# 458035, Bio -Rad).\nAfterwards, proteins were transferred with the Trans -Blot Turbo Transfer System (Catalog# 1704150, Bio-Rad) to Immobilon-FL PVDF membranes (Catalog# IPFL00005, Mill ipore Merck, Burlington, MA, USA) at 1.0 A for 30 min and treated with 5% milk-powder solution for 1 h at room temperature under slight agitation. […] The ChemiDoc XRS+ System (Catalog# 1708265 , Bio-Rad) was used for detection and Image Lab Software 6.1 (Bio-Rad) for quantification. […]"}, "MM.1S cells": {"system": "MM.1S cells", "test": "Cell cycle analysis by PI staining and flow cytometry", "format": "cell-based, human", "details": "10 μM, 48 h", "method": "GraphPad Prism (GraphPad Software). […]\nBiotech), resuspended in 1 mL EtOH/D PBS (7/3 v/v), and fixed for 30 min at 4 °C. The samples were rehydrated with DPBS and treated with 5 µg /mL RNAse ( Catalog# EN0531 , ThermoFisher Scientific Inc.) for 15 min at room temperature. The staining was performed with 3 µM propidium iodide (in DPBS) for 15 min at room temperature and analyzed by flow cytometry ( Guava easyCyteTM, Luminex, […]\nLakes, NJ, USA), using the Watson Pragmatic algorithm.[6] GraphPad Prism (GraphPad Software) was used for normalization, statistical analysis, and bar graph creation. Significance testing was performed with a one-way analysis of variance (ANOVA). Dunnett’s post-hoc test was employed to obtain […]\nFinal DMSO concentration was 0.1%.\nStaining was performed with\nFluorescence was measured by flow cytometry (Guava® easyCyteTM, Luminex, Austin, Texas). GraphPad Prism (GraphPad Software) was used for normalization, statistical analysis, and bar graph creation. Significance testing was performed with a one-way analysis of variance (ANOVA).\nSubsequently, cells were harvested and […]\nAfter 30 minutes of incubation at […]\nDunnett’s post-hoc test was employed"}}}
{"smiles": "O=C(CCCCCCNC(=O)c1ccc(NC(=O)CCCCCCCCCCCN(C(=O)CCl)C(C(=O)NCc2ccccc2)c2ccc(Cl)c(Cl)c2)cc1)NO", "note": "(stereo not drawn) [Compound 1j]", "values": [{"measurement": "reduction of colonies (clonogenic growth)", "setting": "MDA-MB-231 cells", "result": "significant reduction of colonies"}, {"measurement": "Dmax at 10 µM", "setting": "HDAC4", "result": "71 to 76", "unit": "%"}, {"measurement": "effect on cell cycle phases", "setting": "MM.1S cells", "result": "increase of the sub G1 phase, while the S phase was decreased"}]}
{"smiles": "O=C(CCCCCCNC(=O)c1ccc(N(C(=O)CCl)C(C(=O)NCc2ccccc2)c2ccc(Cl)c(Cl)c2)cc1)NO", "note": "(stereo not drawn) [Compound 2]", "values": [{"measurement": "reduction of colonies (clonogenic growth)", "setting": "MDA-MB-231 cells", "result": "significant reduction of colonies"}, {"measurement": "Dmax at 10 µM", "setting": "HDAC4", "result": 40, "unit": "%"}, {"measurement": "effect on cell cycle phases", "setting": "MM.1S cells", "result": "increase of the sub G1 phase, while the S phase was decreased"}]}
